Assay results published in US4730054A, “Imidazole thieno-benzothiepins” (SPOFA, Spojene Podinky Pro Zdravotnickou Vyrobu, priority 1985, dated 1988).
In brackets after ≈: the same amount, converted by molar mass.

What was measured:
[1] = system: S pastorianus; assay: MIC by standard dilution method in a liquid nutrient medium; type: cell-based, Saccharomuces pastorianus; details: inoculum 10^4 CFU/ml, read-out: Antimycotic Activity (MIC)
Source text: (§1) For example, the new compounds were compared in vitro with the known antimycotic agents clotrimazole, miconazole and ketoconazole, in order to determine their minimum inhibitive concentrations (MICs). See, Fromtling, R. A., "Imidazoles as medically important antifungal agents: an overview," 20 Drugs of Today No. 7, 328-331 (1984); Burgess & Bodey, "Clotrimazole," 2 Antimicrobial Agents and Chemotherapy No. 6, 423-6 (1972). […] The test innoculum size was 10^6 CFU/ml for Aspergillus niger and Trichophyton mentagrophytes and 10^4 CFU/ml for Saccharomuces pastorianus and Candida albicans, where CFU is the standard abbreviation for microbial cell counts.

[2] = system: clinical strain isolates of pathogenic molds (a total of 16); assay: Sensitivity of clinical mold strain isolates, dilution method on Sabouraud agar; type: cell-based; details: 16 clinical mold strains
Experimental: (§2) The sensitivity of a larger number of clinical strain isolates of pathogenic molds (a total of 16) as well as yeasts and related microorganisms (a total of 21) when exposed to the inventive compounds was determined using the dilution method on Sabouraud agar. Thus, the experimental MIC values for mold strains exposed to Compound Ia were from 0.7 to 100 mg/l.

[3] = system: A niger; assay: MIC by standard dilution method in a liquid nutrient medium; type: cell-based; details: Aspergillus niger, inoculum 10^6 CFU/ml, read-out: Antimycotic Activity (MIC)
Source text: as §1

[4] = system: T mentagrophytes; assay: as above; type: cell-based; details: Trichophyton mentagrophytes, inoculum 10^6 CFU/ml, read-out: Antimycotic Activity (MIC)
Source text: as §1

[5] = system: C albicans; assay: as above; type: cell-based; details: Candida albicans, inoculum 10^4 CFU/ml, read-out: Antimycotic Activity (MIC)
Source text: as §1

[6] = system: pathogenic molds as well as yeasts and related microorganisms; assay: Effect of addition of serum or blood to the agar test plate on antimycotic effect, Sabouraud agar; type: cell-based; details: for effect of addition of serum or blood to the agar test plate: in comparison to the protein-free agar culture values; for potency in the presence of biological protein substances: such as blood constituents
Experimental: as §2

[7] = system: Candida albicans; assay: Vaginal candidosis induced experimentally in mice, intravaginal administration; type: in vivo, Candida albicans (in mice); details: for inhibition of the test culture: ten days
Experimental: The in vivo evaluation of antimycotic activity was performed using a model of vaginal candidosis induced experimentally in mice by Candida albicans. The test substances were administered intravaginally over a period of ten days in the form of homogenized suspensions of appropriately chosen concentrations in a 0.5% aqueous hydroxyethylcellulose solution. The results were evaluated both immediately upon administration and after one and two weeks.

[8] = system: about forty pathogenic yeast and mold strains; assay: MIC in dilution tests on Sabouraud agar, about forty pathogenic yeast and mold strains; type: cell-based
Experimental: The sensitivity of a larger number of clinical strain isolates of pathogenic molds (a total of 16) as well as yeasts and related microorganisms (a total of 21) when exposed to the inventive compounds was determined using the dilution method on Sabouraud agar.

[9] = Chronic (one month) toxicity on intravaginal administration, dog; type: in vivo
[10] = system: typical inducers of dermal mycoses; assay: Antimycotic activity against typical inducers of dermal mycoses compared with clotrimazole and miconazole; type: cell-based
Experimental: (§3) For example, the new compounds were compared in vitro with the known antimycotic agents clotrimazole, miconazole and ketoconazole, in order to determine their minimum inhibitive concentrations (MICs). See, Fromtling, R. A., "Imidazoles as medically important antifungal agents: an overview," 20 Drugs of Today No. 7, 328-331 (1984); Burgess & Bodey, "Clotrimazole," 2 Antimicrobial Agents and Chemotherapy No. 6, 423-6 (1972). MIC values were determined by the standard dilution method in a liquid nutrient medium, primarily with the following yeast and mold species typically used in preliminary antimycotic screening: Saccharomuces pastorianus, Candida albicans, Trichophyton mentagrophytes, and Aspergillus niger. The test innoculum size was 10^6 CFU/ml for Aspergillus niger and Trichophyton mentagrophytes and 10^4 CFU/ml for Saccharomuces pastorianus and Candida albicans, where CFU is the standard abbreviation for microbial cell counts.

[11] = Standard test for vaginal irritation; type: in vivo; details: standard tests
[12] = Standard test for dermal irritation; type: in vivo; details: standard tests
[13] = Standard test for cancerogenity; details: standard tests
[14] = Standard test for teratogenity; details: standard tests
[15] = system: Aspergillus strains; assay: Antimycotic activity against Aspergillus strains compared with clotrimazole and miconazole; type: cell-based
Experimental: as §3

[16] = Standard test for mutagenity; details: standard tests
[17] = Chronic (one month) toxicity on intravaginal administration, rat; type: in vivo
[18] = Standard test for foetal damage; details: standard tests
[19] = Acute toxicity LD50 in rats p.o.; details: for LD50: rat, in vivo, po

| SMILES | MIC [1] [µg/mL] | MIC [2] [µg/mL] | MIC [3] [µg/mL] | MIC [4] [µg/mL] | MIC [5] [µg/mL] | effect of addition of serum or blood to the agar test plate [6] | potency in the presence of biological protein substances [6] | further results |
| --- | --- | --- | --- | --- | --- | --- | --- | --- |
| Clc1ccccc1C(c1ccccc1)(c1ccccc1)n1ccnc1 [Clotrimazole] | 3.1 (≈ 8.99 µM) | 0.01 to 1.5 (≈ 0.029 to 4.35 µM) | 3.1 (≈ 8.99 µM) | 0.03 (≈ 0.087 µM) | 0.7 (≈ 2.03 µM) | diminished the effect of clotrimazole about one third | – | – |
| c1ccc2c(c1)CSc1sccc1C2n1ccnc1 (centres unmarked) [Compound Ia, 4-(1-imidazolyl)-4,9-dihydrothieno(2,3-c)-2-benzothiepin] | 25 (≈ 87.9 µM) | 0.7 to 100 (≈ 2.46 to 352 µM) | 0.7 (≈ 2.46 µM) | 1.5 (≈ 5.27 µM) | 25 (≈ 87.9 µM) | doubled the effect | actually improved | prophylactic (preventative) effect ([7]; intravaginal, concentration of 7.5%): significant prophylactic (preventative) effect; inhibition of the test culture ([7]; intravaginal, concentration of 7.5%, therapy starting 24 hours prior to infection): complete inhibition; inhibition of the test culture ([7]; intravaginal, concentration of 7.5%, therapy starting simultaneously with infection): complete inhibition; results when therapy was delayed ([7]; intravaginal, therapy delayed until 24 hours after infection): somewhat less favorable |
| Clc1ccc2c(c1)C(n1ccnc1)c1ccsc1SC2 (centres unmarked) [Compound Ib, 6-chloro-4-(1-imidazolyl)-4,9-dihydrothieno(2,3-c)-2-benzothiepin] | 12.5 (≈ 39.2 µM) | 0.01 to 1.5 (≈ 0.0314 to 4.7 µM) | 0.03 (≈ 0.0941 µM) | 0.03 (≈ 0.0941 µM) | 3.1 (≈ 9.72 µM) | had no effect | not diminished | Minimum MIC values [8]: 0.01 to 25 µg/mL; chronic (one month) toxicity [9]: negative; level of activity against typical inducers of dermal mycoses [10]: similarly potent level of activity; vaginal irritation [11]: negative; dermal irritation [12]: negative; cancerogenity [13]: negative; teratogenity [14]: negative; therapeutic effect on vaginal Candida albicans infections ([7]; topical application): beneficial therapeutic effect; activity against Aspergillus strains [15]: notably increased activity; mutagenity [16]: negative; chronic (one month) toxicity [17]: negative; foetal damage [18]: negative; LD50 ([19]; LD50, female rats): 1120 mg/kg; LD50 ([19]; LD50, male rats): 1570 mg/kg; toxicity ([19]; rats): only slightly toxic |
| CC(=O)N1CCN(c2ccc(OCC3COC(Cn4ccnc4)(c4ccc(Cl)cc4Cl)O3)cc2)CC1 (centres unmarked) [Ketoconazole] | 50 (≈ 94.1 µM) | – | 12.5 (≈ 23.5 µM) | 0.7 (≈ 1.32 µM) | 0.03 (≈ 0.0565 µM) | – | – | – |
| Clc1ccc(COC(Cn2ccnc2)c2ccc(Cl)cc2Cl)c(Cl)c1 (centres unmarked) [Miconazole] | 6.2 (≈ 14.9 µM) | – | 1.5 (≈ 3.6 µM) | 0.03 (≈ 0.0721 µM) | 0.7 (≈ 1.68 µM) | – | – | – |
